Reference: patent publication EP2583662A1, “Composition comprising a meroterpen to manage oily skin with tendency to develop acne” (priority 2011, dated 2013)

Key:
[1] = Protection of squalene against H2O2-induced oxidation (GC-MS assay of remaining squalene); settings: for Indice de protection (%): squalene + H2O2 for 1 hour
Description: Le but de l'étude est d'évaluer les effets d'un méroterpène, en l'occurrence le Sytenol®A, sur l'oxydation du squalène induite par du peroxyde d'hydrogène (H2O2).
Le squalène (Sigma, St Quentin Fallavier) est mis en contact avec une quantité définie de peroxyde d'hydrogène pendant 1 heure pour induire son oxydation, en présence ou non du Sytenol®A à 0.1%, 0.25% ou 0.5% (P/V). Un contrôle est réalisé avec un anti-oxydant lipophile de référence, la vitamine E, testée à 0,16% (3,8 mM), correspondant à une concentration équimolaire de Sytenol®A à 0,1%.
A l'issue de l'oxydation, une étape d'extraction est réalisée, puis les échantillons sont analysés par chromatographie en phase gazeuse couplée à une analyse par spectrométrie de masse (GC-MS). Le squalène est dosé grâce à une gamme étalon (10 µg/ml à 2500 µg/ml). La quantité de squalène oxydée est déduite des dosages du squalène. Plus les quantités de squalène dosées sont importantes, moins il a été oxydé et inversement.

[2] = tested on: Propionibacterium acnes CIP A179; experiment: Minimal inhibitory concentration (CMI) in solid medium against Propionibacterium acnes; assay type: cell-based; settings: single active; Wilkins-Chalgren agar, 18h at 37°C, anaerobic
Description: La détermination de la CMI des actifs à évaluer vis-à-vis de Propionibacterium acnes consiste, dans un premier temps, à préparer une gamme comportant neuf dilutions des actifs à tester. Chaque dilution est ensuite déposée en boîte de Pétri puis recouverte de gélose Wilkins-Chalgren. Après homogénéisation puis solidification, chacune des boîtes est inoculée avec une suspension calibrée (10^7 UFC/mL) de P acnes (dépôt par strie), puis les boîtes sont incubées 18h à 37°C en anaérobiose. La souche utilisée est le Propionibacterium acnes CIP A179 (origine = glande sébacée (1946), source CRBIP, Institut Pasteur, Paris).
La préparation des géloses s'effectue à J1 en ajoutant 2 mL d'eau osmosée stérile dans une boîte de Pétri (témoin négatif) ou 2 ml de chaque dilution des gammes d'actifs 10 fois concentré et 18 mL de milieu gélosé. Après solidification à température ambiante, les boites sont séchées 30 min à 37°C puis ensemencées avec la suspension bactérienne calibrée (10^7 UFC/mL) à l'aide d'une ose calibrée de 10 µL permettant de réaliser un dépôt correspondant à environ 10^4 UFC).
La lecture des boites est effectuée après 18 heures de culture à 37°C permettant de déterminer la CMI correspondant à la plus faible concentration d'actif(s) qui inhibe toute culture visible de P acnes. La présence de 1 à 3 colonies n'est pas prise en considération.
Les produits évalués sont le S (Sytenol®A, Sytheon), Z (Zinc gluconate, Azelis), seuls et les associations S + M (mannitol, IMCD/SPCI) + G (extrait glycolique de Ginkgo biloba, Greentech) et S + M + G + Z.
Le Sytenol®A qui présente un caractère lipophile est dilué dans le DMSO (solution mère à 10%) avant d'être redilué dans l'eau osmosée. Le zinc, le mannitol et l'extrait de Ginkgo sont directement dilués dans l'eau osmosée.
Les essais ont également compris des contrôles en présence du solvant DMSO ayant servi à la solubilisation de S dans l'eau.

## C=C[C@@](C)(/C=C/c1ccc(O)cc1)CCC=C(C)C [Sytenol®A, bakuchiol]
[1]; equimolar concentration of 3,8 mM
  fois plus efficace que la vitamine E en termes de protection de l'oxydation du squalène: 2 fois
[1]; tested at 0.1% (3.9mM)
  Indice de protection (%): 30.02%
[1]; tested at 0.25% (9.75 mM)
  Indice de protection (%): 37.12%

## Zinc gluconate
[2]
  CMI: 0.12%

## O=C(OOC(=O)c1ccccc1)c1ccccc1 [Peroxyde de Benzoyle, peroxyde de benzoyle]
[2]
  CMI: 0.008%

## vitamine E
[1]; tested at 0.16% (3.8mM)
  Indice de protection (%): 15.17%
